# According to article PMC6315749 (Marine Drugs, 2018):
# Columns and labels:
# [1] = molecular target: Aplysia californica AChBP (Aplysia californica, UniProt Q8WSF8); assay: biochemical; type: binding
# rat α9α10 nAChR = details: cited from earlier work
# Aplysia californica AChBP, sequence (Q8WSF8 18-236 limits assumed): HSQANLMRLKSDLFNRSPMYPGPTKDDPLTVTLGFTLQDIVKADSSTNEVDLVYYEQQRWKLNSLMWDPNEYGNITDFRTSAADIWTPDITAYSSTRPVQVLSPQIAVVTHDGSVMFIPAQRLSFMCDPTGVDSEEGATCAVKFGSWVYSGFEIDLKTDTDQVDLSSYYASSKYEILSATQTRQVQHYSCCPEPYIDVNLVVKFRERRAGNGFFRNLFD
Compound,IC50 [1] [nM],affinity for rat α9α10 nAChRs (rat α9α10 nAChR)
N=C(N)NCCC[C@H](NC(=O)[C@@H]1CSSC[C@@H]2NC(=O)[C@@H](NC(=O)CN)CSSC[C@H](NC(=O)[C@H](CCCNC(=N)N)NC(=O)[C@@H]3CCCN3C(=O)[C@H](CC(=O)O)NC(=O)[C@H](CO)NC2=O)C(=O)N[C@@H](CCCNC(=N)N)C(=O)N[C@@H](Cc2ccc(O)cc2)C(=O)N[C@@H](CCCNC(=N)N)C(=O)N1)C(=O)O [RgIA globular isomer],194 ± 14,–
N=C(N)NCCC[C@H](NC(=O)[C@@H]1CSSC[C@H](NC(=O)CN)C(=O)N[C@H]2CSSC[C@H](NC(=O)[C@H](CCCNC(=N)N)NC(=O)[C@@H]3CCCN3C(=O)[C@H](CC(=O)O)NC(=O)[C@H](CO)NC2=O)C(=O)N[C@@H](CCCNC(=N)N)C(=O)N[C@@H](Cc2ccc(O)cc2)C(=O)N[C@@H](CCCNC(=N)N)C(=O)N1)C(=O)O [RgIA ribbon isomer],1000 ± 80,–
Vc1.1,–,nanomolar
